# According to patent EP4436951B1, “USE OF AURANTIAMIDE ACETATE IN THE TREATMENT OF HYPERTENSION” (Akdeniz Universitesidoner Sermaye Isletme Mudurlugu, priority 2021, dated 2023):
# Columns and labels:
# erythrocytes = assay: Erythrocyte deformability by ektacytometer (laser diffraction) after 4-week treatment; type: in vivo, Wistar rats; conditions: 37°C
# From the text: (§1) 5 experimental groups were formed to observe the effects of aurantiamide acetate. Eight […] male Wistar rats were used in each group. The experimental groups created are as follows: • 1. Control group, • 2. SHAM operated (the abdominal cavity is opened and closed by suturing again without any procedure) group, • 3. Aurantiamide acetate (ASP) administered group, • 4. Hypertension (HT) group, • 5. Hypertension+aurantiamide acetate (HT+ASP) administered group.
# (§2) Aurantiamide acetate was applied to the ASP and HT+ASP groups among the experimental groups. A 100 mM stock was prepared by dissolving 10 mg of aurantiamide acetate in 225 µl of dimethyl sulfoxide (DMSO). For 200 g rat, µl of aurantiamide acetate was administered in 100 µl. Weekly 2.5 mg/kg of aurantiamide acetate was administered intraperitoneally for 4 weeks, 0.5 mg/kg daily, 5 days a week. In total, each rat was given 10 mg/kg of aurantiamide acetate. […]
# Erythrocyte deformability was measured in the experimental groups. […] Erythrocyte deformability was evaluated by laser diffraction analysis at various fluid shear forces. […] Thus, the deformability of erythrocytes in response to increased shear forces was determined. […] The erythrocyte deformability was calculated by the system as an elongation index. Elongation index (EI) values were measured between nine shear forces (0.30 - 75.02 Pa). […]
# [1] = Change in body weight during the administration period; type: in vivo, Wistar rats; conditions: between the experimental groups, Day 0 and end of 4th week
# From the text: as §1
# as §2, with “acetate. To eliminate the effects of daily intraperitoneal (i.p.) injection; equal volumes (100 µl) of i.p.DMSO were injected into the rats of control group, SHAM-operated group, and hypertension group.” for “acetate.”
# The initial weights of the rats were measured in the range of 180-200 g. The weights of each rat before the experiment (Day 0) and after the experiment (at the end of the 4th week) were recorded. […]
# [2] = cited from earlier work; for decrease in concentrations: 4 hours after administration; for decrease in concentrations / time to maximum plasma concentration / accumulation in tissues: rats; for decrease in concentrations / accumulation in tissues: oral; for toxic effects: administrations up to 100mg/kg; for time to maximum plasma concentration: oral administration of Portulaca oleracea L extracts
# Thoracic Aorta = assay: Vascular tone of isolated thoracic aorta rings in organ bath after 4-week treatment (KCl, Phe, ACh and SNP protocols); type: in vivo, Wistar rats
# From the text: as §1
# (§3) Aurantiamide acetate was applied to the ASP and HT+ASP groups among the experimental groups. A 100 mM stock was prepared by dissolving 10 mg of aurantiamide acetate in 225 µl of dimethyl sulfoxide (DMSO). For 200 g rat, µl of aurantiamide acetate was administered in 100 µl. Weekly 2.5 mg/kg of aurantiamide acetate was administered intraperitoneally for 4 weeks, 0.5 mg/kg daily, 5 days a week. In total, each rat was given 10 mg/kg of aurantiamide acetate. To eliminate the effects of daily intraperitoneal (i.p.) injection; equal volumes (100 µl) of i.p.DMSO were injected into the rats of control group, SHAM-operated group, and hypertension group. Changes in body weight, blood pressure values, erythrocyte deformability, vascular isolation, and vascular tone were investigated in the experimental groups during the experiment.
# Vascular isolation was investigated in the experimental groups. The rats in all experimental groups were anesthetized with intraperitoneal ketamine/xylazine (45 mg/kg ketamine and 10 mg/kg xylazine) anesthesia at the end of the 4-week experimental period. After their abdomens were opened, blood was drawn from their abdominal aorta to obtain plasma as well as for use in measuring deformability, and rats were sacrificed by anemia. The thoracic aorta was quickly opened and the thoracic aorta was separated from the other tissues, and removed. As soon as the thoracic aorta tissue is removed, it was taken into a beaker containing Krebs solution (110 mM sodium chloride (NaCl), 5 mM potassium chloride (KCI), 24 mM sodium bicarbonate (NaHCO3), 1 mM mono potassium phosphate (KH2PO4), 1 mM magnesium sulfate heptahydrate (MgSO4.7H2O), 2.5 mM calcium chloride (CaCl2), 10 mM glucose, 0.02 mM ethylenediamine tetraacetic acid (EDTA); pH=7.4). After the tissue was washed with cold Krebs, the dissection stage was started. For the microdissection stage, the thoracic aorta, taken in a petri dish containing cold Krebs, is fixed to the medium, and fat and connective tissue were removed from the artery at the appropriate magnification by using a dissecting microscope. The isolated thoracic aorta is divided into rings of appropriate length. In addition, the rest of the aorta tissue was removed and stored under appropriate conditions for histological and biochemical parameters. Vascular tone was evaluated in the experimental groups. Vascular tone in the experimental groups was analyzed as in the previous work of the project team. After the isolated thoracic aorta is divided into 2 - 2.5 mm long rings; it was gasified with a gas mixture containing 95% O2 - 5% CO2, and it was placed in an organ bath with 10 ml of Krebs solution at 37°C and pH 7.4. After the vessel rings are attached to the isometric transducer by means of a tight rope by hanging them on steel wires, they were washed every 15 minutes under 1 gram relaxation tension and rested for a total of 60 minutes. If the tension changed after each wash, attention was paid to bring it back to 1 gram of tension. After a one-hour relaxation tension (rest period), the vitalization stage, which is the prepulse stage, was applied to the vessels. For this process, after applying Krebs solution containing 20 mM potassium chloride (KCI), phenylephrine (Phe) was added at a concentration of 10^-7 M. This process was repeated 3 times in succession. After the vitalization procedure, the vessels were washed with Krebs solution and an additional 30-minute resting period was started. […]
# [3] = system: 2K-1C renovascular hypertension; assay: Blood pressure by non-invasive tail-cuff method in rats, Goldblatt two kidneys single clip (2K-1C) hypertension model; type: in vivo, Wistar rats
# From the text: as §1
# Hypertension was induced in rats with the Goldblatt model with two kidneys and a single clip (2K-1C). In this model, no operation was performed on the right kidney. The left renal artery was narrowed to 0.22 mm in diameter. In the surgical hypertension model created, renin secretion by the kidney with decreased blood flow led to increased angiotensin II (ANG II) formation and therefore an increase in blood pressure. Sodium excretion by the intact contralateral kidney increases as blood pressure increases (pressure natriuresis), therefore, there was no sodium retention. The rats were anesthetized intraperitoneally before the operation. In the creation of the hypertension model, 90 mg/kg ketamine and 10 mg/kg xylazine were administered intraperitoneally for anesthesia. After anesthesia, the abdomens of the rats were shaved and disinfected with betadine. After disinfection, a midline incision was made and the left kidney was exposed. The left renal artery was isolated from the renal vein, and to induce 2K-1C renovascular hypertension, the circumference of the left renal artery was narrowed gently to 0.22 mm in diameter by 5/0 non-absorbable silicone-coated silk sutures The same procedure was applied to SHAM operated group rats, but the left renal artery was not narrowed. Postoperatively, the peritoneum was sutured with 3/0 absorbable polyglycan suture and the skin layer was sutured with 3/0 non-absorbable silk suture. In the hypertension model, it was waited for 1 week to observe the increase in blood pressure in the hypertension and hypertension+aurantiamide acetate groups, and then blood pressure was measured.
# The blood pressures of the animals were measured by the non-invasive tail-cuff method. An occlusive cuff and a piezoelectric impact sensor are placed around the tail. Arterial blood pressure measurements were taken weekly at the same time of day (9:00 am to 12:00 am) to avoid influencing the circadian cycle. Basal blood pressure was measured after delivery of each rat, and blood pressures were recorded regularly every week for 4 weeks until sacrifice. The data acquisition system reported blood pressure (mmHg) as systolic, diastolic, and mean. Each measurement was repeated three times and the average of these three data was taken.
# as §3
# Blood pressure values were examined in the experimental groups during the experimental period.
# [4] = aurantiamide acetate group (no hypertension) vs control and SHAM, p>0.05
smiles,measurement,setting,value
CC(=O)OC[C@H](Cc1ccccc1)NC(=O)[C@H](Cc1ccccc1)NC(=O)c1ccccc1 [aurantiamide acetate],"erythrocyte deformability, Elmax values",erythrocytes; [4],no difference
same,erythrocyte deformability,"erythrocytes; hypertension + aurantiamide acetate group compared to hypertension group, p<0.01",significant increase
same,body weights before and after,[1],no significant difference
same,decrease in concentrations,[2],approximately 90%
same,toxic effects,[2],No toxic effects
same,time to maximum plasma concentration,[2],approximately 12 minutes
same,accumulation in tissues,[2],no long-term accumulation
same,ACh-mediated relaxation response (endothelium-dependent),Thoracic Aorta; [4],no difference
same,Phe-mediated contractile response,Thoracic Aorta; [4],no differences
same,SNP-mediated relaxation response (endothelium-independent),Thoracic Aorta; [4],no statistical difference
same,KCl-mediated contractile response,"Thoracic Aorta; aurantiamide acetate group (no hypertension) vs control, SHAM and hypertension groups, 20, 40 and 80 mM KCl, p>0.05",no differences
same,Phe-mediated contractile response,"Thoracic Aorta; hypertension+aurantiamide acetate group compared to hypertension group, p<0.05 and p<0.001",significantly reduced
same,SNP-mediated relaxation response (endothelium-independent),"Thoracic Aorta; hypertension+aurantiamide acetate group compared to hypertension group, p>0.05",no difference
same,KCl-mediated contractile response,"Thoracic Aorta; hypertension+aurantiamide acetate group compared to the other groups, increasing KCl concentrations, p<0.001",significantly lower
same,ACh-mediated relaxation response (endothelium-dependent),"Thoracic Aorta; hypertension+aurantiamide acetate group vs hypertension group, p<0.05 and p<0.01",improvement
same,mean arterial blood pressure,"[3]; ASP group (no hypertension), second week, compared with control and SHAM operated groups, p<0.05, 0.5 mg/kg daily i.p., 5 days a week",significantly lower
same,mean arterial blood pressure,"[3]; ASP group (no hypertension), third week, compared with control group, p<0.05, 0.5 mg/kg daily i.p., 5 days a week",significantly lower
same,mean arterial blood pressure,"[3]; HT+ASP group, last week (week 4), compared to HT group, p<0.001",significant decrease
same,mean arterial blood pressure,"[3]; HT+ASP group, second week, compared to HT group, p<0.001, 0.5 mg/kg daily i.p., 5 days a week",significant decrease
same,mean arterial blood pressure,"[3]; HT+ASP group, second week, compared with control, SHAM and ASP groups, p<0.001",significantly higher
same,mean arterial blood pressure,"[3]; HT+ASP group, third week, compared to HT group, p<0.001",significant decrease
same,mean arterial blood pressure,"[3]; HT+ASP group, third week, compared with ASP group only, p<0.001",significantly higher
same,mean arterial blood pressure,"[3]; HT+ASP group, week 4, no difference from control, SHAM and ASP groups (p>0.05)",reduced to basal levels
same,mean arterial blood pressure,"[3]; within ASP group according to the weeks, p>0.05",did not show a significant difference
O=C(N[C@@H](Cc1ccccc1)C(=O)N[C@H](CO)Cc1ccccc1)c1ccccc1 [aurantiamide],decrease in concentrations,[2],approximately 90%
same,toxic effects,[2],No toxic effects
same,time to maximum plasma concentration,[2],approximately 12 minutes
same,accumulation in tissues,[2],no long-term accumulation
